According to US20230103631A1, “PEPTIDES AS SELECTIVE GIP RECEPTOR AGONISTS” (Sanofi, priority 2020, published 2023):
*1 amine or outer side, *2 acyl side, *3 side chain or, on linkers, in order; H or OH if unused. Where a SMILES comes first, the peptide text is derived from it. Side-chain parts run from the residue outwards. [ ]: non-standard residue; d: D form. The star is where a group is joined. C18 diacid = O=C(O)CCCCCCCCCCCCCCCCC(=O)*; γGlu = O=C(O)[C@H](CCC(=O)[*:2])N[*:1]; NMeY = CN[C@@H](Cc1ccc(O)cc1)C(=O)O; AEEA = NCCOCCOCC(=O)O; Aib = CC(C)(N)C(=O)O; Sar = CNCC(=O)O

Assays:
[1] = ThT assay for the assessment of physical stability; assay type: physicochemical; conditions: ThT buffer system A: 100 mM phosphate buffer pH 7.4; 3 mg/ml, 37° C.
Excerpt: Low physical stability of a peptide solution may lead to amyloid fibril formation, which is observed as well-ordered, thread-like macromolecular structures in the sample, which eventually may lead to gel formation. Thioflavin T (ThT) is widely used to visualize and quantify the presence of misfolded protein aggregates [Biancalana et al., Biochim. Biophys. Acta 2010, 1804(7), 1405]. […] Enzymol. 1999, 309, 274]. The time course for fibril formation often follows the characteristic shape of a sigmoidal curve and can be separated into three regions: a lag phase, a fast growth phase, and a plateau phase.
The typical fibril formation process starts with the lag phase in which the amount of partially folded peptide turned into fibrils is not significant enough to be detected. The lag-time corresponds to the time the critical mass of the nucleus is built. Afterwards, a drastic elongation phase follows, and fibril concentration increases rapidly.
Investigations were carried out to determine fibrillation tendencies under stress conditions by shaking at 37° C. within Fluoroskan Ascent FL or Fluoroskan Ascent.
For the tests in Fluoroskan Ascent (FL), 200 μl sample were placed into a 96-well mictrotiter plate PS, flat bottom, Greiner Fluotrac No. 655076. Plates were sealed with Scotch Tape (Qiagen). Samples were stressed by continuous cycles of 10 sec shaking at 960 rpm and 50 sec rest period at 37° C. The kinetic was monitored by measuring fluorescence intensity every 20 min.
Peptides were diluted in a buffer system to a final concentration of 3 mg/ml. 20 μl of a 10.1 mM ThT solution in H2O were added to 2 ml of peptide solution to receive a final concentration of 100 μM ThT. For each sample eight replicates were tested.
ThT buffer system A) 100 mM phosphate buffer pH 7.4
ThT buffer system B) 100 mM phosphate buffer pH 7.4, 2.7 mg/ml m-cresol
Lag time in hours (h) in Thioflavin T (ThT) assay of peptide samples was determined in ThT buffer system A as described in Methods.

human GIP receptor = biological target: T1, human GIP receptor (Homo sapiens, UniProt P48546); test: cAMP HTRF assay in human adipocytes endogenously expressing the human GIP receptor; assay type: cell-based; conditions: for EC50: read-out: hGIPR EC50; for Emax: read-out: hGIPR Emax
T1 construct: human adipocytes endogenously expressing the human GIP receptor; host or cells: human preadipocytes (Lonza) differentiated to adipocytes
T1 sequence (P48546 22-466): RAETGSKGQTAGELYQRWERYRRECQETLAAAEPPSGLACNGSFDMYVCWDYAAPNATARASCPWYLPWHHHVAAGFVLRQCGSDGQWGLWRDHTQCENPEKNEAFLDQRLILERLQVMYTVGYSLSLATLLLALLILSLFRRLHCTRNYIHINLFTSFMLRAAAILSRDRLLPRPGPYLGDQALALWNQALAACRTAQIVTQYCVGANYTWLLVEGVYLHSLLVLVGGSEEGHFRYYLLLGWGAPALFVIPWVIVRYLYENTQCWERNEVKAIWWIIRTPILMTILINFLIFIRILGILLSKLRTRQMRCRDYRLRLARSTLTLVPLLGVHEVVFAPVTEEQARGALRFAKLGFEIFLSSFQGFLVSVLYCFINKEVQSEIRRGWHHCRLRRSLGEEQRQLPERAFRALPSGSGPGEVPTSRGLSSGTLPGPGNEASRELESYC
Procedure: For this, one vial of human preadipocytes (˜10^6 cells; Lonza) was thawed in a T-75 cell culture dish.
After 3 days, the cells were washed with PBS and 1.5 ml Trypsin, incubated for 4 min, then resuspended in medium, centrifugated for 10 min @ 300 rcf RT, resuspended again and distributed to four T-75 cell culture dishes.
After 5 days, the cells were washed with PBS and 1.5 ml Trypsin, incubated for 4 min, then resuspended in medium, centrifugated for 10 min @ 300 rcf RT, resuspended again and sawn in T-75 dishes (2.5×10^6 cells per dish) in 15 ml Differentiation medium each.
After 6 days of differentiation, 5000 cells per well were dispensed on a 96-well plate (#CLS3694 from Corning®, Sigma-Aldrich). For measurement of cAMP generation, 25 μL of test compound was added to each well of the 96-well plate, followed by incubation for 30 min at room temperature.
The cAMP generated following test compound stimulation was determined using a kit from Cisbio Corp. based on HTRF (Homogenous Time Resolved Fluorescence). The cAMP assay was performed according to manufacturer's instructions (Cisbio).
The cAMP content of cells was determined using a kit from Cisbio Corp. based on HTRF (Homogenous Time Resolved Fluorescence).

[2] = biological target: T2, human GIP receptor (hGIPR) (Homo sapiens, UniProt P48546); test: Binding assay, displacement of [125I]GIP from HEK-293 membranes expressing GIPR; conditions: [125I]GIP displacement
T2 sequence (P48546 22-466): T1 sequence (P48546 22-466)
Procedure: HEK-293 cells recombinantly over-expressing GIPR or GLP-1R were grown to 50% confluency, washed with warm 1×PBS (Gibco) and detached in HEPES/EDTA-buffer (100 mM HEPES pH 7.5, 5 mM EDTA). Cells were harvested by centrifugation at 4° C. and 3000×g and the pellets were stored at −80° C. until further processing.
After thawing on ice, pellets were resuspended in HEPES/EDTA-buffer and homogenized on ice for 1 min using Ultra-Turray T25. After subsequent sonification the cell debris was removed by centrifugation at 1000×g and 4° C. Supernatants were then ultra-centrifuged at 100000×g and 4° C. under vacuum for 30 min. Pellets were resuspended in HEPES/EDTA/NaCl-buffer (20 mM HEPES, 1 mM EDTA, 150 mM NaCl; add 1 Complete Mini Protease inhibitor cocktail to 10 ml buffer) and protein content was determined via BCA-Protein assay.

SMILES	Increase in FI [1]	Lag time before increase [1] [h]	EC50 (human GIP receptor) [nM]	Emax (human GIP receptor) [%]	IC50 [2] [nM]
CC[C@H](C)[C@H](NC(=O)[C@H](CCCNC(=N)N)NC(=O)[C@H](CC(=O)O)NC(=O)[C@H](CCCCNC(=O)COCCOCCNC(=O)COCCOCCNC(=O)CC[C@H](NC(=O)CCCCCCCCCCCCCCCCC(=O)O)C(=O)O)NC(=O)C(C)(C)NC(=O)[C@@H](NC(=O)[C@H](CO)NC(=O)[C@H](CC(C)C)NC(=O)[C@H](CC(=O)O)NC(=O)[C@H](CO)NC(=O)[C@@H](NC(=O)[C@H](Cc1ccccc1)NC(=O)[C@@H](NC(=O)CNC(=O)[C@H](CCC(=O)O)NC(=O)C(C)(C)NC(=O)[C@H](Cc1ccc(O)cc1)NC)[C@@H](C)O)[C@@H](C)CC)[C@@H](C)CC)C(=O)N[C@@H](Cc1c[nH]cn1)C(=O)N[C@@H](CCC(N)=O)C(=O)NC(C)(C)C(=O)N[C@@H](CCC(=O)O)C(=O)N[C@@H](Cc1ccccc1)C(=O)N[C@H](C(=O)N[C@@H](CCC(=O)O)C(=O)N[C@@H](Cc1c[nH]c2ccccc12)C(=O)N[C@@H](CC(C)C)C(=O)N[C@@H](CC(C)C)C(=O)N[C@@H](C)C(=O)N[C@@H](CCC(N)=O)C(=O)NCC(=O)N1CCC[C@H]1C(=O)N[C@@H](CO)C(=O)N[C@@H](CO)C(=O)NCC(=O)N[C@@H](C)C(=O)N1CCC[C@H]1C(=O)N1CCC[C@H]1C(=O)N1CCC[C@H]1C(=O)N[C@@H](CO)C(N)=O)[C@@H](C)CC [SEQ ID NO: 8, MeHN-Y-Aib-E-G-T-F-I-S-D-I-S-I-Aib-K[{AEEA}2-gGlu-C180H]-D-R-I-H-Q-Aib-E-F--E-W-I-L-A-Q-G-P-S-S-G-A-P-P-P-S-NH2] (H-[NMeY][Aib]EGTFISDLSI[Aib]K([AEEA-AEEA-γGlu-C18 diacid])DRIHQ[Aib]EFIEWLLAQGPSSGAPPPS-NH2)	no	>45	0.5	116	0.2
CC[C@H](C)[C@H](NC(=O)[C@H](CCCNC(=N)N)NC(=O)[C@H](CC(=O)O)NC(=O)[C@H](CCCCNC(=O)CN(C)C(=O)CN(C)C(=O)CN(C)C(=O)CC[C@H](NC(=O)CCCCCCCCCCCCCCCCC(=O)O)C(=O)O)NC(=O)C(C)(C)NC(=O)[C@@H](NC(=O)[C@H](CO)NC(=O)[C@H](CC(C)C)NC(=O)[C@H](CC(=O)O)NC(=O)[C@H](CO)NC(=O)[C@@H](NC(=O)[C@H](Cc1ccccc1)NC(=O)[C@@H](NC(=O)CNC(=O)[C@H](CCC(=O)O)NC(=O)C(C)(C)NC(=O)[C@@H](N)Cc1ccc(O)cc1)[C@@H](C)O)[C@@H](C)CC)[C@@H](C)CC)C(=O)N[C@@H](Cc1c[nH]cn1)C(=O)N[C@@H](CCC(N)=O)C(=O)NC(C)(C)C(=O)N[C@@H](CCC(=O)O)C(=O)N[C@@H](Cc1ccccc1)C(=O)N[C@H](C(=O)N[C@@H](CCC(=O)O)C(=O)N[C@@H](Cc1c[nH]c2ccccc12)C(=O)N[C@@H](CC(C)C)C(=O)N[C@@H](CC(C)C)C(=O)N[C@@H](C)C(=O)N[C@@H](CCC(N)=O)C(=O)NCC(=O)N1CCC[C@H]1C(=O)N[C@@H](CO)C(=O)N[C@@H](CO)C(=O)NCC(=O)N[C@@H](C)C(=O)N1CCC[C@H]1C(=O)N1CCC[C@H]1C(=O)N1CCC[C@H]1C(=O)N[C@@H](CO)C(N)=O)[C@@H](C)CC [SEQ ID NO: 6, H2N-Y-Aib-E-G-T-F-I-S-D-I-S-I-Aib-K[{N-MeGly}3-gGlu-C18OH]-D-R-I-H-Q-Aib-E-F-I-E-W-I-L-A-Q-G-P-S-S-G-A-P-P-P-S-NH2] (H-Y[Aib]EGTFISDLSI[Aib]K([Sar-Sar-Sar-γGlu-C18 diacid])DRIHQ[Aib]EFIEWLLAQGPSSGAPPPS-NH2)	no	>45	0.3	112	0.1
CC[C@H](C)[C@H](NC(=O)[C@H](Cc1ccccc1)NC(=O)[C@H](CCC(=O)O)NC(=O)[C@H](CCC(=O)O)NC(=O)[C@H](CCC(N)=O)NC(=O)[C@H](Cc1c[nH]cn1)NC(=O)[C@@H](NC(=O)[C@H](CCCNC(=N)N)NC(=O)[C@H](CC(=O)O)NC(=O)[C@H](CCCCNC(=O)COCCOCCNC(=O)COCCOCCNC(=O)CC[C@H](NC(=O)CCCCCCCCCCCCCCCCC(=O)O)C(=O)O)NC(=O)C(C)(C)NC(=O)[C@@H](NC(=O)[C@H](CO)NC(=O)[C@H](CC(C)C)NC(=O)[C@H](CC(=O)O)NC(=O)[C@H](CO)NC(=O)[C@@H](NC(=O)[C@H](Cc1ccccc1)NC(=O)[C@@H](NC(=O)CNC(=O)[C@H](CCC(=O)O)NC(=O)C(C)(C)NC(=O)[C@@H](N)Cc1ccc(O)cc1)[C@@H](C)O)[C@@H](C)CC)[C@@H](C)CC)[C@@H](C)CC)C(=O)N[C@@H](CCC(=O)O)C(=O)N[C@@H](Cc1c[nH]c2ccccc12)C(=O)N[C@@H](CC(C)C)C(=O)N[C@@H](CC(C)C)C(=O)N[C@@H](C)C(=O)N[C@@H](CCC(N)=O)C(=O)NCC(=O)N1CCC[C@H]1C(=O)N[C@@H](CO)C(=O)N[C@@H](CO)C(=O)NCC(=O)N[C@@H](C)C(=O)N1CCC[C@H]1C(=O)N1CCC[C@H]1C(=O)N1CCC[C@H]1C(=O)N[C@@H](CO)C(=O)O [SEQ ID NO: 11, H2N-Y-Aib-E-G-T-F-I-S-D-I-S-I-Aib-K[{AEEA}2-gGlu-C18OH]-DRIHQEEFIEWILAQGPSSGAPPPS-OH] (H-Y[Aib]EGTFISDLSI[Aib]K([AEEA-AEEA-γGlu-C18 diacid])DRIHQEEFIEWLLAQGPSSGAPPPS-OH)				122	0.5
